Patent US9834571B2, “Compounds for inhibiting cell proliferation in EGFR-driven cancers” (ARIAD Pharmaceuticals, Inc., priority 2012, dated 2017)
Read-outs that look alike come from different tables or passages of the source.

Assays:
EGFR L858R = EGFR L858R (Homo sapiens, UniProt P00533, L858R); experiment: Kinase inhibitory activity against EGFR bearing the L858R mutation; format: biochemical; conditions: 10 μM ATP, read-out: IC50 for kinase inhibition, EGFR L858R
Experimental: (§1) Kinase inhibitory activity of the compounds was measured against human EGFR (native sequence) and against EGFR bearing the L858R mution and the L858R/T790M double mutation (EGFR, L858R, and L858R/T790M, respectively in Table 1). Additional assays can be conducted with EGFR deletion mutants such as delE746-A750 with or without the additional T790M mutation. Assay conditions included 10 pt curves with 3 μM top concentration (singlicates) and 10 μM ATP.

[1] = molecular target: human EGFR (native sequence) (Homo sapiens, UniProt P00533); experiment: Kinase inhibitory activity against human EGFR (native sequence); format: biochemical; conditions: 10 μM ATP, read-out: IC50 for kinase inhibition, EGFR
Chain of human EGFR (native sequence) (P00533 25-1210): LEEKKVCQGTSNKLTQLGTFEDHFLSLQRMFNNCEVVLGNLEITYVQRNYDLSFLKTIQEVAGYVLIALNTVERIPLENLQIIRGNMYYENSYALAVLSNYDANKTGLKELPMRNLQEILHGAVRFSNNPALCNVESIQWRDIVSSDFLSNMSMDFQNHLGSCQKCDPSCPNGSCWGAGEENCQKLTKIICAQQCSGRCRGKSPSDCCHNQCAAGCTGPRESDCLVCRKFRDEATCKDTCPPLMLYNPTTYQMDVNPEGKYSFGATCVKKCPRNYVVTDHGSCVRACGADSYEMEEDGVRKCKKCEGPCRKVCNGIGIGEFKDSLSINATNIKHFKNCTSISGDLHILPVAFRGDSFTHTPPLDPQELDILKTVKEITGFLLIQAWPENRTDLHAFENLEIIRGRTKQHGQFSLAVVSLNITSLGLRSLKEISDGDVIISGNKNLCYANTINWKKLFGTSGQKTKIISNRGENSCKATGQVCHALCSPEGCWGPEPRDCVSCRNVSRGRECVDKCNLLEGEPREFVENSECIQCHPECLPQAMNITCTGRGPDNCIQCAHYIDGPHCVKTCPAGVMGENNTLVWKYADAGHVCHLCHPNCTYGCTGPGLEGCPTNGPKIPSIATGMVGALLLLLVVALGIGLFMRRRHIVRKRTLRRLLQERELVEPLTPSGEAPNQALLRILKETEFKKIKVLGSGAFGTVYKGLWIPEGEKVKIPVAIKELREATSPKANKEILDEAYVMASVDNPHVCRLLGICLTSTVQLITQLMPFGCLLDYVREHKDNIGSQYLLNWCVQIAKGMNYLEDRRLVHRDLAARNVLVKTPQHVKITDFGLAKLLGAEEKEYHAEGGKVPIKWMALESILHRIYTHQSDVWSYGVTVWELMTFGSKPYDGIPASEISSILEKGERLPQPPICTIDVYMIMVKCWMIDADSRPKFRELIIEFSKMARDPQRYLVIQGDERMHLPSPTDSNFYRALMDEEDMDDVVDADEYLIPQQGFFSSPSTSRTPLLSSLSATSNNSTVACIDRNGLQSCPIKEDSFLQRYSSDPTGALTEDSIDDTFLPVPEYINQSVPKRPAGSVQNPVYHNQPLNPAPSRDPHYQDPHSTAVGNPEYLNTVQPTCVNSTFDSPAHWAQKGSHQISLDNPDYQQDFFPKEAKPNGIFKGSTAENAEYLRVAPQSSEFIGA
Experimental: as §1

[2] = system: BaF3 cells expressing wildtype EGFR; experiment: Antiproliferative activity (MTT) against control BaF3 cells expressing wildtype EGFR; format: cell-based
Experimental: (§2) We also assessed the antiproliferative activity of compounds of Formula (I) against BaF3 cells expressing the target EGFR mutations or control (i.e., cell lines expressing wildtype EGFR). Assays were conducted using MTT.

EGFR L858R/T790M = EGFR L858R/T790M (Homo sapiens, UniProt P00533, L858R/T790M); experiment: Kinase inhibitory activity against EGFR bearing the L858R/T790M double mutation; format: biochemical; conditions: 10 μM ATP, read-out: IC50 for kinase inhibition, EGFR L858R T790M
Experimental: as §1

[3] = molecular target: T1, BaF3 cells expressing the target EGFR mutations (Homo sapiens, UniProt P00533, T790M/L858R, cells depend on it); experiment: Antiproliferative activity (MTT) against BaF3 cells expressing the target EGFR mutations; format: cell-based; conditions: BAF3 EGFR L858R-T790M PURO POOL cells, read-out: IC50, BAF3 EGFR L858R-T790M PURO POOL
T1 construct: IC50, BAF3 EGFR L858R-T790M PURO POOL; other: BAF3 EGFR L858R-T790M PURO POOL cells, MTT; IC50, BAF3 EGFR L858R-T790M PURO POOL; other: BAF3 EGFR L858R-T790M PURO POOL cells; MTT
T1 sequence (P00533 whole entry T790M/L858R): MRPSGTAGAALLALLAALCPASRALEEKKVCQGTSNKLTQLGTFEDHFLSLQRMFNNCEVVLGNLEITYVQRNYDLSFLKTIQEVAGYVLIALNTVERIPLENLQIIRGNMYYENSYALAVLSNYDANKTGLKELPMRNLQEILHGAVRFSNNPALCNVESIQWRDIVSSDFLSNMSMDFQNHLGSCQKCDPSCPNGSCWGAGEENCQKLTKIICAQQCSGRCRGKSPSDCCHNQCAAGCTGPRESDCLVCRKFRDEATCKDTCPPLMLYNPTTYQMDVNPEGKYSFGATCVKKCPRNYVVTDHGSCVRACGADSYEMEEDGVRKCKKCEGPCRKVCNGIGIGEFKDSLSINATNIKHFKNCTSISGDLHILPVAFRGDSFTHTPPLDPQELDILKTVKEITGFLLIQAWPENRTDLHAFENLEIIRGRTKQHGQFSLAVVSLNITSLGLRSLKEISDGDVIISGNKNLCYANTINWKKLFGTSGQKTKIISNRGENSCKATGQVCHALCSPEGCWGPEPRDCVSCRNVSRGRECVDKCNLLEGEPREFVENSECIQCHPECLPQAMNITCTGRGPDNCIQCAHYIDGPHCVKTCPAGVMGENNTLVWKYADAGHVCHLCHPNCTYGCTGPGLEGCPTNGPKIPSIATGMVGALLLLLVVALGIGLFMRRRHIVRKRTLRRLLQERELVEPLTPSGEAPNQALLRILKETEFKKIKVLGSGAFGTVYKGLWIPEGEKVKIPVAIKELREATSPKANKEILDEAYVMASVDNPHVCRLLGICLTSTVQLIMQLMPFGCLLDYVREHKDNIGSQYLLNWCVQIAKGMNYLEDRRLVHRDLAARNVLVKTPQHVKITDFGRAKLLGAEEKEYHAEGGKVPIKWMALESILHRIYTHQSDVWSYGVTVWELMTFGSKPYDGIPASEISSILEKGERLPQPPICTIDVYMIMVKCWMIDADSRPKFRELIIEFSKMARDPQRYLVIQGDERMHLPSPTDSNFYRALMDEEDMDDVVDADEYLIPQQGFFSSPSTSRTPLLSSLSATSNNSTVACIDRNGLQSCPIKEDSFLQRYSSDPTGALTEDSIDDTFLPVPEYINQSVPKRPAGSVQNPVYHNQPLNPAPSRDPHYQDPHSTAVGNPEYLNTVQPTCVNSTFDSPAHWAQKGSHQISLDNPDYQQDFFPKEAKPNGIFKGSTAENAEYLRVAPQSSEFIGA
Experimental: as §2

[4] = molecular target: T2, BaF3 cells expressing the target EGFR mutations (Homo sapiens, UniProt P00533, T790M, cells depend on it, form not given); experiment: as above; format: cell-based; conditions: BAF3 EGFR DEL T790M PURO POOL cells, read-out: IC50, BAF3 EGFR DEL T790M PURO POOL
T2 construct: IC50, BAF3 EGFR DEL T790M PURO POOL; other: BAF3 EGFR DEL T790M PURO POOL cells, MTT; other: BAF3 EGFR DEL T790M PURO POOL cells; MTT
T2 sequence (P00533 with tags, fused parts or gaps DEL746-750/T790M, form open): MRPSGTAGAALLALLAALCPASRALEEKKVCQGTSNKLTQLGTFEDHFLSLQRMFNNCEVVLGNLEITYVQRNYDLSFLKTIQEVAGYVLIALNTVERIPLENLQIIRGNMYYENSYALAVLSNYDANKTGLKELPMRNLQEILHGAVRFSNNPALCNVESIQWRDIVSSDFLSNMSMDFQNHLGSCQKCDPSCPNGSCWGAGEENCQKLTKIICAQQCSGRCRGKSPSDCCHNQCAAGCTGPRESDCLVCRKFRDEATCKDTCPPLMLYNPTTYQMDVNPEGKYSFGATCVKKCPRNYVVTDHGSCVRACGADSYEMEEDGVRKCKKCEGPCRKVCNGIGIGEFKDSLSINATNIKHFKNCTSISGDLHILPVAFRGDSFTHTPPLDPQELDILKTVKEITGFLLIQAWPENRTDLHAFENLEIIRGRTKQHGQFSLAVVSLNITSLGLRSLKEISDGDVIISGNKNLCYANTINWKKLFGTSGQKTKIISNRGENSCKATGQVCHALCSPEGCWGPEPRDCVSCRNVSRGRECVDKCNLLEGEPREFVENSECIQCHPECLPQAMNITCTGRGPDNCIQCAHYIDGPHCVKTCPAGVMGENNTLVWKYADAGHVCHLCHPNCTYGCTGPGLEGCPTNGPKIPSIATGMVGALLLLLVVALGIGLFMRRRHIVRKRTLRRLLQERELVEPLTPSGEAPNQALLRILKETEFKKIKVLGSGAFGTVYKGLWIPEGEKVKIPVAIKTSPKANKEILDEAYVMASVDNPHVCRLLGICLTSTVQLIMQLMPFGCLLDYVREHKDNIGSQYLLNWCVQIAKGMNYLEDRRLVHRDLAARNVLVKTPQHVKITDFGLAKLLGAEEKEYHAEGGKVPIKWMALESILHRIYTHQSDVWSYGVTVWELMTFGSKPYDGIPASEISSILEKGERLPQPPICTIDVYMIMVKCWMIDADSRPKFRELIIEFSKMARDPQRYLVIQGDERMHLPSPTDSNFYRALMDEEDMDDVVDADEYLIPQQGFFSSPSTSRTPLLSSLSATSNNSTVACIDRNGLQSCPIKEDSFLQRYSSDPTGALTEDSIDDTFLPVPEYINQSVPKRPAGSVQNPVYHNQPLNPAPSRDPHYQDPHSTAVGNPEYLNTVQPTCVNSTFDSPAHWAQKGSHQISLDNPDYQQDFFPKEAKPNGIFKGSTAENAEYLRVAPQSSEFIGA
Experimental: as §2

[5] = Mus musculus, BAF3 PARENTAL cells (control)
[6] = EGFR L858R/T790M double mutation
[7] = 10 pt curves, 3 μM top concentration
[8] = Mus musculus, BAF3 parental cells

Chain of EGFR L858R (P00533 25-1210 L858R): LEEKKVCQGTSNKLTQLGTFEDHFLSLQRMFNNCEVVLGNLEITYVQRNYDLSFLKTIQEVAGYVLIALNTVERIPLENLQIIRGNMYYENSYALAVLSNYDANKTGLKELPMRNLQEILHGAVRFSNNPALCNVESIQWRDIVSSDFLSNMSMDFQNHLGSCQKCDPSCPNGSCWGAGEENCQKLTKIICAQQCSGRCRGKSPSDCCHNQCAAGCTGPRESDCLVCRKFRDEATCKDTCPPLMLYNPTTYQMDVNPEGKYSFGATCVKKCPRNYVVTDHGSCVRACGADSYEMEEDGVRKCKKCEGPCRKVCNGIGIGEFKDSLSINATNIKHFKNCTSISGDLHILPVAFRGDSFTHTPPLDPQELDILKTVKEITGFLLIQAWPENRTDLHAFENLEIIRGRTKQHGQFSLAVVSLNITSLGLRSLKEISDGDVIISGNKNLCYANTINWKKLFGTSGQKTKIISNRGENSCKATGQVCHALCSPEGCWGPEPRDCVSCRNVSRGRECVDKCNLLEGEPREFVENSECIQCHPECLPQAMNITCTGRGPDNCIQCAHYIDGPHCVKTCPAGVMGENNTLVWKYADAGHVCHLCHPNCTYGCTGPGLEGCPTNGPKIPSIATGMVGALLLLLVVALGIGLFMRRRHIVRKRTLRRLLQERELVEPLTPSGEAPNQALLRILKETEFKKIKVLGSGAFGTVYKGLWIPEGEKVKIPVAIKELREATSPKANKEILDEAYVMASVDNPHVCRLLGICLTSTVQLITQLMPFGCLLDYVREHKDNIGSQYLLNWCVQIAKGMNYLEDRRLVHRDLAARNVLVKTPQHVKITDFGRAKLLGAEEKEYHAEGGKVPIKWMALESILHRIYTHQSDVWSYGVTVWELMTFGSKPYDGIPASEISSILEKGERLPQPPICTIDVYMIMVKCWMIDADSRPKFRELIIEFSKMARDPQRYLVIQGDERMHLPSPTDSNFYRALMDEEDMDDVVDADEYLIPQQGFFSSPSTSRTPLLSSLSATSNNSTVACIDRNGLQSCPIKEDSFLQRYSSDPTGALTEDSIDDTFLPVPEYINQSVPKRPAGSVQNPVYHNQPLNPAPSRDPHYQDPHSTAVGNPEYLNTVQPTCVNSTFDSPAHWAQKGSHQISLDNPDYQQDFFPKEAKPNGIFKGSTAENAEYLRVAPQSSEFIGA

Row | IC50 (EGFR L858R; EGFR L858R) | IC50 ([1]; human EGFR native sequence) | IC50 (EGFR L858R/T790M; [6]) | GI50 [3] | GI50 [4] | IC50 (EGFR L858R; [7]) | IC50 [1, 7] | IC50 (EGFR L858R/T790M; [7]) | Structure (SMILES) | IC50 [2, 5] | IC50 [2, 8] | IC50 ([2]; BAF3 parental cells)
1 | < 50 nM | < 50 nM | < 50 nM | < 50 nM | < 50 nM | – | – | – | COCC#CC(=O)Nc1ccc(OC)c(Nc2ncc(Cl)c(Nc3ccccc3P(C)(C)=O)n2)c1 [Example 97, N-(3-((5-chloro-4-((2-(dimethylphosphoryl)phenyl)amino)pyrimidin-2-yl)amino)-4-methoxyphenyl)-4-methoxybut-2-ynamide] | ≥ 250 nM | – | –
2 | < 50 nM | < 50 nM | < 50 nM | ≥ 250 nM | 101 to 250 nM | – | – | – | C=CC(=O)Nc1cc(Nc2ncc(Cl)c(Nc3ccccc3P(C)(C)=O)n2)c(OC)cc1CCN1CCN(C)CC1 [Example 74, N-(5-((5-chloro-4-((2-(dimethylphosphoryl)phenyl)amino)pyrimidin-2-yl)amino)-4-methoxy-2-(2-(4-methylpiperazin-1-yl)ethyl)phenyl)acrylamide] | ≥ 250 nM | – | –
3 | – | – | – | < 50 nM | < 50 nM | < 50 nM | < 50 nM | < 50 nM | C=CC(=O)Nc1ccc(Cl)c(Nc2ncc(Cl)c(Nc3ccccc3P(C)(C)=O)n2)c1 [Example 136, N-(4-chloro-3-((5-chloro-4-((2-(dimethylphosphoryl)phenyl)amino)pyrimidin-2-yl)amino)phenyl)acrylamide] | – | ≥ 250 nM | –
4 | < 50 nM | < 50 nM | < 50 nM | < 50 nM | < 50 nM | – | – | – | COc1cc(F)c(NC(=O)C#CC(C)(C)N2CCCC2)cc1Nc1ncc(Cl)c(Nc2ccccc2P(C)(C)=O)n1 [Example 90, N-(5-((5-chloro-4-((2-(dimethylphosphoryl)phenyl)amino)pyrimidin-2-yl)amino)-2-fluoro-4-methoxyphenyl)-4-methyl-4-(pyrrolidin-1-yl)pent-2-ynamide] | ≥ 250 nM | – | –
5 | < 50 nM | < 50 nM | < 50 nM | < 50 nM | < 50 nM | – | – | – | C=CC(=O)Nc1cc(Nc2ncc(Cl)c(Nc3ccccc3P(C)(C)=O)n2)c(OC)cc1OC1CCCN(C)C1 (stereo not shown) [Example 12, N-(5-((5-chloro-4-((2-(dimethylphosphoryl)phenyl)amino)pyrimidin-2-yl)amino)-4-methoxy-2-((1-methylpiperidin-3-yl)oxy)phenyl)acrylamide] | ≥ 250 nM | – | –
6 | < 50 nM | 50 to 100 nM | < 50 nM | < 50 nM | < 50 nM | – | – | – | C=CC(=O)Nc1ccc(OC)c(Nc2ncc(Cl)c(Nc3ccc(OCC4CCOCC4)cc3P(C)(C)=O)n2)c1 [Example 100, N-(3-((5-chloro-4-((2-(dimethylphosphoryl)-4-((tetrahydro-2H-pyran-4-yl)methoxy)phenyl)amino)pyrimidin-2-yl)amino)-4-methoxyphenyl)acrylamide] | ≥ 250 nM | – | –
7 | – | – | – | < 50 nM | < 50 nM | < 50 nM | < 50 nM | < 50 nM | C=CC(=O)Nc1cc(Nc2ncc(Cl)c(Nc3ccccc3P(C)(C)=O)n2)c(OC)cc1C#CCCN(C)C [Example 128, N-(5-((5-chloro-4-((2-(dimethylphosphoryl)phenyl)amino)pyrimidin-2-yl)amino)-2-(4-(dimethylamino)but-1-yn-1-yl)-4-methoxyphenyl)acrylamide] | – | ≥ 250 nM | –
8 | < 50 nM | < 50 nM | < 50 nM | < 50 nM | < 50 nM | – | – | – | C=CC(=O)Nc1cc(Nc2ncc(Cl)c(Nc3ccccc3P(C)(C)=O)n2)c(OC)cc1N1CC[C@@H](N(C)C)C1 (stereo in doubt) [Example 26, rac-(R)-N-(5-((5-chloro-4-((2-(dimethylphosphoryl)phenyl)amino)pyrimidin-2-yl)amino)-2-(3-(dimethylamino)pyrrolidin-1-yl)-4-methoxyphenyl)acrylamide] | ≥ 250 nM | – | –
9 | – | – | – | 101 to 250 nM | 50 to 100 nM | – | – | – | C=CC(=O)Nc1cc(Nc2ncc(Cl)c(Nc3ccccc3P(C)(C)=O)n2)c(OC)cc1OC1CN(C)C1 [Example 17, N-(5-((5-chloro-4-((2-(dimethylphosphoryl)phenyl)amino)pyrimidin-2-yl)amino)-4-methoxy-2-((1-methylazetidin-3-yl)oxy)phenyl)acrylamide] | ≥ 250 nM | – | –
10 | – | – | – | – | – | < 50 nM | < 50 nM | < 50 nM | C=CC(=O)Nc1cc(Cc2ncc(Cl)c(Nc3ccccc3P(C)(C)=O)n2)c(OC)cc1C#CCN(C)C(C)(C)C [Example 177, N-(2-(3-(tert-butyl(methyl)amino)prop-1-yn-1-yl)-5-((5-chloro-4-((2-(dimethylphosphoryl)phenyl)amino)pyrimidin-2-yl)methyl)-4-methoxyphenyl)acrylamide] | – | ≥ 250 nM | –
11 | – | – | – | ≥ 250 nM | 101 to 250 nM | – | – | – | C=CC(=O)Nc1cc(Nc2ncc(Cl)c(Nc3ccccc3P(C)(C)=O)n2)c(OC)cc1OCC(CO)N(C)C (stereo not shown) [Example 66, N-(5-((5-chloro-4-((2-(dimethylphosphoryl)phenyl)amino)pyrimidin-2-yl)amino)-2-(2-(dimethylamino)-3-hydroxypropoxy)-4-methoxyphenyl)acrylamide] | ≥ 250 nM | – | –
12 | – | – | – | < 50 nM | < 50 nM | – | – | – | C=CC(=O)Nc1cc(Nc2ncc(Cl)c(Nc3ccccc3P(C)(C)=O)n2)c(OC)cc1OCC1CCCN1C (stereo not shown) [Example 18, N-(5-((5-chloro-4-((2-(dimethylphosphoryl)phenyl)amino)pyrimidin-2-yl)amino)-4-methoxy-2-((1-methylpyrrolidin-2-yl)methoxy)phenyl)acrylamide] | ≥ 250 nM | – | –
13 | – | – | – | – | < 50 nM | – | < 50 nM | – | C=CC(=O)Nc1cc(Nc2ncc(Cl)c(Nc3ccccc3P(C)(C)=O)n2)c(C)cc1OC(COC)CN(C)C (stereo not shown) [Example 144, N-(5-((5-chloro-4-((2-(dimethylphosphoryl)phenyl)amino)pyrimidin-2-yl)amino)-2-((1-(dimethylamino)-3-methoxypropan-2-yl)oxy)-4-methylphenyl)acrylamide] | – | – | ≥ 250 nM
14 | – | – | – | ≥ 250 nM | 101 to 250 nM | – | – | – | C=CC(=O)N1CCc2cc(OC)c(Nc3ncc(Cl)c(Nc4ccccc4P(C)(C)=O)n3)cc21 [Example 127, 1-(6-((5-chloro-4-((2-(dimethylphosphoryl)phenyl)amino)pyrimidin-2-yl)amino)-5-methoxyindolin-1-yl)prop-2-en-1-one] | – | ≥ 250 nM | –
15 | – | – | – | – | – | < 50 nM | < 50 nM | < 50 nM | C=CC(=O)Nc1cc(Cc2ncc(Cl)c(Nc3ccccc3P(C)(C)=O)n2)c(OC)cc1C#CCN1CCC(C)CC1 [Example 176, N-(5-((5-chloro-4-((2-(dimethylphosphoryl)phenyl)amino)pyrimidin-2-yl)methyl)-4-methoxy-2-(3-(4-methylpiperidin-1-yl)prop-1-yn-1-yl)phenyl)acrylamide] | – | ≥ 250 nM | –
16 | – | – | – | < 50 nM | < 50 nM | – | – | – | C=CC(=O)Nc1ccc(F)c(Nc2ncc(Cl)c(Nc3ccccc3P(C)(C)=O)n2)c1 [Example 54, N-(3-((5-chloro-4-((2-(dimethylphosphoryl)phenyl)amino)pyrimidin-2-yl)amino)-4-fluorophenyl)acrylamide] | ≥ 250 nM | – | –
17 | – | – | – | – | < 50 nM | – | < 50 nM | – | C=CC(=O)Nc1cc(Nc2ncc(Cl)c(Nc3ccccc3P(C)(C)=O)n2)c(Cl)cc1OC(COC)CN(C)C (stereo not shown) [Example 146, N-(4-chloro-5-((5-chloro-4-((2-(dimethylphosphoryl)phenyl)amino)pyrimidin-2-yl)amino)-2-((1-(dimethylamino)-3-methoxypropan-2-yl)oxy)phenyl)acrylamide] | – | – | ≥ 250 nM
18 | < 50 nM | 101 to 250 nM | < 50 nM | – | ≥ 250 nM | – | – | – | C=CC(=O)Nc1cc(Nc2ncc(Cl)c(Nc3ccccc3P(C)(C)=O)n2)c(OC)cc1OCCN1CCN(C)CC1 [Example 2, N-(5-((5-chloro-4-((2-(dimethylphosphoryl)phenyl)amino)pyrimidin-2-yl)amino)-4-methoxy-2-(2-(4-methylpiperazin-1-yl)ethoxy)phenyl)acrylamide] | ≥ 250 nM | – | –
